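Dose response: 5 concentrations. Exposure: 48 h. Format: 96-well plates. Endpoint: linear interpolation; highest concentration if not reached. Here, GI50 denotes the concentration required for 50% inhibition of growth. TGI denotes the concentration required for complete inhibition of growth.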
Legend:
Test in all cases: growth of human tumour cells (NCI), 48 h
786-0 renal = system: 786-0 renal
A498 renal = system: A498 renal
ACHN renal = system: ACHN renal
BT-549 breast = system: BT-549 breast
CAKI-1 renal = system: CAKI-1 renal
CCRF-CEM leukemia = system: CCRF-CEM leukemia
COLO 205 colon = system: COLO 205 colon
DU-145 prostate = system: DU-145 prostate
EKVX NSCLC = system: EKVX NSCLC
HCC-2998 colon = system: HCC-2998 colon
HCT-116 colon = system: HCT-116 colon
HCT-15 colon = system: HCT-15 colon
HL-60(TB) leukemia = system: HL-60(TB) leukemia
HOP-62 NSCLC = system: HOP-62 NSCLC
HOP-92 NSCLC = system: HOP-92 NSCLC
HS 578T breast = system: HS 578T breast
HT29 colon = system: HT29 colon
IGROV1 ovarian = system: IGROV1 ovarian
K-562 leukemia = system: K-562 leukemia
KM12 colon = system: KM12 colon
LOX IMVI melanoma = system: LOX IMVI melanoma
M14 melanoma = system: M14 melanoma
MALME-3M melanoma = system: MALME-3M melanoma
MCF7 breast = system: MCF7 breast
MDA-MB-231 breast = system: MDA-MB-231 breast
MDA-MB-435 = system: MDA-MB-435
MOLT-4 leukemia = system: MOLT-4 leukemia
NCI-H226 lung = system: NCI-H226 lung
NCI-H23 lung = system: NCI-H23 lung
NCI-H460 lung = system: NCI-H460 lung
NCI-H522 lung = system: NCI-H522 lung
NCI/ADR-RES ovarian = system: NCI/ADR-RES ovarian
OVCAR-3 ovarian = system: OVCAR-3 ovarian
OVCAR-4 ovarian = system: OVCAR-4 ovarian
OVCAR-5 ovarian = system: OVCAR-5 ovarian
OVCAR-8 ovarian = system: OVCAR-8 ovarian
PC-3 prostate = system: PC-3 prostate
RPMI-8226 leukemia = system: RPMI-8226 leukemia
RXF 393 renal = system: RXF 393 renal
SF-268 CNS = system: SF-268 CNS
SF-295 CNS = system: SF-295 CNS
SF-539 CNS = system: SF-539 CNS
SK-MEL-2 melanoma = system: SK-MEL-2 melanoma
SK-MEL-28 melanoma = system: SK-MEL-28 melanoma
SK-MEL-5 melanoma = system: SK-MEL-5 melanoma
SK-OV-3 ovarian = system: SK-OV-3 ovarian
SN12C renal = system: SN12C renal
SNB-19 CNS = system: SNB-19 CNS
SNB-75 CNS = system: SNB-75 CNS
SR leukemia = system: SR leukemia
SW-620 colon = system: SW-620 colon
T-47D breast = system: T-47D breast
TK-10 renal = system: TK-10 renal
U251 CNS = system: U251 CNS
UACC-257 melanoma = system: UACC-257 melanoma
UACC-62 melanoma = system: UACC-62 melanoma
UO-31 renal = system: UO-31 renal

Compound: COc1ccc2nc3ccccc3c(NCCNCC(C)O)c2c1 (configuration not stated)
- GI50 (786-0 renal): 0.306 µM
- TGI (786-0 renal): 1.83 µM
- GI50 (A498 renal): 0.0734 µM
- TGI (A498 renal): 0.73 µM
- GI50 (ACHN renal): 0.375 µM
- TGI (ACHN renal): 14.4 µM
- GI50 (BT-549 breast): 1.61 µM
- TGI (BT-549 breast): 5.73 µM
- GI50 (CAKI-1 renal): 0.434 µM
- TGI (CAKI-1 renal): 11.4 µM
- GI50 (CCRF-CEM leukemia): 0.436 µM
- TGI (CCRF-CEM leukemia): 3.47 µM
- GI50 (COLO 205 colon): 0.192 µM
- TGI (COLO 205 colon): 0.704 µM
- GI50 (DU-145 prostate): 0.516 µM
- TGI (DU-145 prostate): 14.7 µM
- GI50 (EKVX NSCLC): 1.1 µM
- TGI (EKVX NSCLC): 7.82 µM
- GI50 (HCC-2998 colon): 0.519 µM
- TGI (HCC-2998 colon): 2.37 µM
- GI50 (HCT-116 colon): 0.241 µM
- TGI (HCT-116 colon): 1.41 µM
- GI50 (HCT-15 colon): 0.461 µM
- TGI (HCT-15 colon): 10.6 µM
- GI50 (HL-60(TB) leukemia): 0.492 µM
- TGI (HL-60(TB) leukemia): 4.26 µM
- GI50 (HOP-62 NSCLC): 0.369 µM
- TGI (HOP-62 NSCLC): 2.57 µM
- GI50 (HOP-92 NSCLC): 0.393 µM
- TGI (HOP-92 NSCLC): 3.48 µM
- GI50 (HS 578T breast): 1.1 µM
- TGI (HS 578T breast): 12.2 µM
- GI50 (HT29 colon): 0.323 µM
- TGI (HT29 colon): 1.9 µM
- GI50 (IGROV1 ovarian): 0.387 µM
- TGI (IGROV1 ovarian): 5.93 µM
- GI50 (K-562 leukemia): 0.33 µM
- GI50 (KM12 colon): 0.536 µM
- TGI (KM12 colon): 14.2 µM
- GI50 (LOX IMVI melanoma): 0.202 µM
- TGI (LOX IMVI melanoma): 0.483 µM
- GI50 (M14 melanoma): 0.356 µM
- TGI (M14 melanoma): 1.79 µM
- GI50 (MALME-3M melanoma): 0.426 µM
- TGI (MALME-3M melanoma): 1.72 µM
- GI50 (MCF7 breast): 0.315 µM
- TGI (MCF7 breast): 4.14 µM
- GI50 (MDA-MB-231 breast): 0.31 µM
- TGI (MDA-MB-231 breast): 1.85 µM
- GI50 (MDA-MB-435): 0.433 µM
- TGI (MDA-MB-435): 1.77 µM
- GI50 (MOLT-4 leukemia): 0.368 µM
- GI50 (NCI-H226 lung): 0.708 µM
- TGI (NCI-H226 lung): 4.79 µM
- GI50 (NCI-H23 lung): 0.367 µM
- TGI (NCI-H23 lung): 2.05 µM
- GI50 (NCI-H460 lung): 0.276 µM
- TGI (NCI-H460 lung): 10.4 µM
- GI50 (NCI-H522 lung): 0.427 µM
- TGI (NCI-H522 lung): 2.09 µM
- GI50 (NCI/ADR-RES ovarian): 5.11 µM
- TGI (NCI/ADR-RES ovarian): 39.4 µM
- GI50 (OVCAR-3 ovarian): 0.449 µM
- TGI (OVCAR-3 ovarian): 9.4 µM
- GI50 (OVCAR-4 ovarian): 0.463 µM
- TGI (OVCAR-4 ovarian): 4.45 µM
- GI50 (OVCAR-5 ovarian): 0.377 µM
- TGI (OVCAR-5 ovarian): 5.01 µM
- GI50 (OVCAR-8 ovarian): 0.441 µM
- TGI (OVCAR-8 ovarian): 11.9 µM
- GI50 (PC-3 prostate): 0.537 µM
- TGI (PC-3 prostate): 4.82 µM
- GI50 (RPMI-8226 leukemia): 0.398 µM
- TGI (RPMI-8226 leukemia): 2.66 µM
- GI50 (RXF 393 renal): 0.373 µM
- TGI (RXF 393 renal): 1.74 µM
- GI50 (SF-268 CNS): 0.583 µM
- TGI (SF-268 CNS): 11.1 µM
- GI50 (SF-295 CNS): 0.36 µM
- TGI (SF-295 CNS): 4.02 µM
- GI50 (SF-539 CNS): 0.435 µM
- TGI (SF-539 CNS): 2.04 µM
- GI50 (SK-MEL-2 melanoma): 0.785 µM
- TGI (SK-MEL-2 melanoma): 2.8 µM
- GI50 (SK-MEL-28 melanoma): 0.539 µM
- TGI (SK-MEL-28 melanoma): 2.77 µM
- GI50 (SK-MEL-5 melanoma): 1.03 µM
- TGI (SK-MEL-5 melanoma): 2.3 µM
- GI50 (SK-OV-3 ovarian): 0.612 µM
- TGI (SK-OV-3 ovarian): 9.12 µM
- GI50 (SN12C renal): 0.253 µM
- TGI (SN12C renal): 2.22 µM
- GI50 (SNB-19 CNS): 0.391 µM
- TGI (SNB-19 CNS): 10.3 µM
- GI50 (SNB-75 CNS): 0.781 µM
- TGI (SNB-75 CNS): 2.59 µM
- GI50 (SR leukemia): 0.278 µM
- TGI (SR leukemia): 10.8 µM
- GI50 (SW-620 colon): 0.3 µM
- TGI (SW-620 colon): 12.5 µM
- GI50 (T-47D breast): 0.465 µM
- TGI (T-47D breast): 6.27 µM
- GI50 (TK-10 renal): 0.54 µM
- TGI (TK-10 renal): 6.04 µM
- GI50 (U251 CNS): 0.549 µM
- TGI (U251 CNS): 4.94 µM
- GI50 (UACC-257 melanoma): 0.81 µM
- TGI (UACC-257 melanoma): 3.84 µM
- GI50 (UACC-62 melanoma): 0.354 µM
- TGI (UACC-62 melanoma): 2.08 µM
- GI50 (UO-31 renal): 0.398 µM
- TGI (UO-31 renal): 2.39 µM
